Results reported in patent US20240208992A1, “MACROCYCLES AS CFTR MODULATORS” (Idorsia Pharmaceuticals Ltd, priority 2021, published 2024).
pEC50: −log10 of the molar value.

Target: human F508del-CFTR (Homo sapiens, UniProt P13569, DEL508-508)
Assay: F508del-CFTR cell surface expression (corrector activity), DiscoveRx ß-galactosidase complementation chemiluminescence assay in recombinant U2OS cell line;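 further: U2OS cells co-expressing ProLink-tagged F508del-CFTR and a membrane-anchored enzyme acceptor, where more surface CFTR restores β-galactosidase activity measured by chemiluminescence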
Details: for pEC50: EC50, F508del-CFTR cell surface expression, U2OS cells, 16h compound incubation, geomean values; for Emax: U2OS, in relation to Emax of corrector lumacaftor (=100%), arithmetic mean values

Sequence of human F508del-CFTR (P13569 with tags, fused parts or gaps DEL508-508): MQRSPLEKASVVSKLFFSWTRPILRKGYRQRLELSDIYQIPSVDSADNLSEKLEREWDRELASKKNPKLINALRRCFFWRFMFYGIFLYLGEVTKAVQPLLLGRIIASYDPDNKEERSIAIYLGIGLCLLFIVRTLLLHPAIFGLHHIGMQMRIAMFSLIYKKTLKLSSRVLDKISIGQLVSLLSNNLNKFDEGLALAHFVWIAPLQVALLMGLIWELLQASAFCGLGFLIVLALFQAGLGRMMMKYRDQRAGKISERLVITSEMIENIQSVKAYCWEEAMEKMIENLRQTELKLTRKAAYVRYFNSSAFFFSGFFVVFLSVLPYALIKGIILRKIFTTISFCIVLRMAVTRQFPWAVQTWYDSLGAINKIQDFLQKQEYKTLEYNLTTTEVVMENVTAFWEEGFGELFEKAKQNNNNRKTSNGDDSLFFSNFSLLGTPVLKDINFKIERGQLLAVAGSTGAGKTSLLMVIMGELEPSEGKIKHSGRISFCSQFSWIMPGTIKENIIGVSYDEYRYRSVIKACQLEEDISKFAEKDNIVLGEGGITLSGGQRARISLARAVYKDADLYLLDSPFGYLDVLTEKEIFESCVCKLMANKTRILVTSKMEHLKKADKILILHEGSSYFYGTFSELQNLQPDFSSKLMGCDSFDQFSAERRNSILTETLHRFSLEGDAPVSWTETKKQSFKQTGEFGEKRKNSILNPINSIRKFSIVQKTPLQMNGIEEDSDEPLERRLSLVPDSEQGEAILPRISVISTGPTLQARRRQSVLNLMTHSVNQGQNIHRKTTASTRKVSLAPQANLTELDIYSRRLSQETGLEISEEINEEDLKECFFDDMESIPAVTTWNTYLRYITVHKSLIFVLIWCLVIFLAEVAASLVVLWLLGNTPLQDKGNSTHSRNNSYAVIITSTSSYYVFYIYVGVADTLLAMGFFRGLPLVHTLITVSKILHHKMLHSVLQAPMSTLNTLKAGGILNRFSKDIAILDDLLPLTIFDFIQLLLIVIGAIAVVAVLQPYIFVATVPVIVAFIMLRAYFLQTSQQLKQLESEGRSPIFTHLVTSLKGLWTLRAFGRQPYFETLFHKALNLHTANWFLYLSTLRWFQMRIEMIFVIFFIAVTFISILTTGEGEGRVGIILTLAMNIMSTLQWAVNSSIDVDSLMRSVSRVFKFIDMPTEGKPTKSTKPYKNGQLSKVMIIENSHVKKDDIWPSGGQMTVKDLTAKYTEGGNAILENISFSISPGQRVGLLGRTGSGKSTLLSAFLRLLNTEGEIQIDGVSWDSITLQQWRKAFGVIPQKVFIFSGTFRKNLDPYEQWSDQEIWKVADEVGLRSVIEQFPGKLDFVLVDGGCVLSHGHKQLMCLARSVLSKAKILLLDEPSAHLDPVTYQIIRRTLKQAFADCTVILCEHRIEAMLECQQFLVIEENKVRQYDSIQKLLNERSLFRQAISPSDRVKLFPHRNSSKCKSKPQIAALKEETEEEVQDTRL

## CCOc1cccc(CCNC(=O)[C@@H]2CC(=O)N(C)[C@@H](CC(C)C)C(=O)N3CCN(C4CC4)C[C@H]3C(=O)N[C@H](Cc3ccccc3)COc3cnc4ccccc4c3C(=O)N2)c1 [Example 401, (9S,13S,19aS,22R)-22-benzyl-18-cyclopropyl-N-(3-ethoxyphenethyl)-13-isobutyl-12-methyl-7,11,14,20-tetraoxo-7,8,9,10,11,12,13,14,17,18,19,19a,20,21,22,23-hexadecahydro-16H-pyrazino[2′,1′:6,7][1]oxa[4,7,10,14]tetraazacycloheptadecino[17,16-c]quinoline-9-carboxamide]
  pEC50: 6.25
  Emax: 189%

## Cc1cc(CCNC(=O)[C@@H]2CC(=O)N(C)[C@@H](CC(C)C)C(=O)N3CCN(C4CC4)C[C@@H]3C(=O)N[C@H](Cc3ccccc3)COc3cnc4ccccc4c3C(=O)N2)on1 [Example 402, (9S,13S,19aR,22R)-22-benzyl-18-cyclopropyl-13-isobutyl-12-methyl-N-(2-(3-methylisoxazol-5-yl)ethyl)-7,11,14,20-tetraoxo-7,8,9,10,11,12,13,14,17,18,19,19a,20,21,22,23-hexadecahydro-16H-pyrazino[2′,11:6,7][1]oxa[4,7,10,14]tetraazacycloheptadecino[17,16-c]quinoline-9-carboxamide]
  pEC50: 6.52
  Emax: 314%

## Cc1cc(CCNC(=O)[C@@H]2CC(=O)N(C)[C@@H](CC(C)C)C(=O)N3CCN(C4CC4)C[C@H]3C(=O)N[C@H](Cc3ccccc3)COc3cnc4ccccc4c3C(=O)N2)on1 [Example 403, (9S,13S,19aS,22R)-22-benzyl-18-cyclopropyl-13-isobutyl-12-methyl-N-(2-(3-methylisoxazol-5-yl)ethyl)-7,11,14,20-tetraoxo-7,8,9,10,11,12,13,14,17,18,19,19a,20,21,22,23-hexadecahydro-16H-pyrazino[2′,11:6,7][1]oxa[4,7,10,14]tetraazacycloheptadecino[17,16-c]quinoline-9-carboxamide]
  pEC50: 6.26
  Emax: 179%

## CC(C)C[C@H]1C(=O)N2CCN(C3CC3)C[C@@H]2C(=O)N[C@H](Cc2ccccc2)COc2cnc3ccccc3c2C(=O)N[C@H](C(=O)NCCc2nc3c(s2)CCC3)CC(=O)N1C [Example 404, (9S,13S,19aR,22R)-22-benzyl-18-cyclopropyl-N-(2-(5,6-dihydro-4H-cyclopenta[d]thiazol-2-yl)ethyl)-13-isobutyl-12-methyl-7,11,14,20-tetraoxo-7,8,9,10,11,12,13,14,17,18,19,19a,20,21,22,23-hexadecahydro-16H-pyrazino[2′,11:6,7][1]oxa[4,7,10,14]tetraazacycloheptadecino[17,16-c]quinoline-9-carboxamide]
  pEC50: 6.80
  Emax: 254%

## CC(C)C[C@H]1C(=O)N2CCN(C3CC3)C[C@H]2C(=O)N[C@H](Cc2ccccc2)COc2cnc3ccccc3c2C(=O)N[C@H](C(=O)NCCc2nc3c(s2)CCC3)CC(=O)N1C [Example 405, (9S,13S,19aS,22R)-22-benzyl-18-cyclopropyl-N-(2-(5,6-dihydro-4H-cyclopenta[d]thiazol-2-yl)ethyl)-13-isobutyl-12-methyl-7,11,14,20-tetraoxo-7,8,9,10,11,12,13,14,17,18,19,19a,20,21,22,23-hexadecahydro-16H-pyrazino[2′,1′:6,7][1]oxa[4,7,10,14]tetraazacycloheptadecino[17,16-c]quinoline-9-carboxamide]
  pEC50: 6.46
  Emax: 171%

## COc1cccc(CCNC(=O)[C@@H]2CC(=O)N(C)[C@@H](CC(C)C)C(=O)N3CCCC[C@@H]3C(=O)N[C@H](Cc3ccccc3)COc3cc4oc(C)nc4cc3C(=O)N2)c1 [Example 406, (7S,11S,21R,23aR)-21-benzyl-7-isobutyl-N-(3-methoxyphenethyl)-8,16-dimethyl-6,9,13,23-tetraoxo-1,3,4,6,7,8,9,10,11,12,13,20,21,22,23,23a-hexadecahydro-2H-oxazolo[5′,4′:4,5]benzo[1,2-p]pyrido[2,1-f][1]oxa[4,7,10,14]tetraazacycloheptadecine-11-carboxamide]
  pEC50: 6.39
  Emax: 173%

## COc1cccc(CCNC(=O)[C@@H]2CC(=O)N(C)[C@@H](CC(C)C)C(=O)N3CCOC[C@@H]3C(=O)N[C@H](Cc3ccccc3)COc3cc4oc(C)nc4cc3C(=O)N2)c1 [Example 407]
  pEC50: 6.16
  Emax: 123%

## CC(C)C[C@H]1C(=O)N(C)CC(=O)N[C@H](Cc2ccccc2)COc2ccc3c(c2C(=O)N[C@H](C(=O)NCCc2ccc4c(c2)OCO4)CC(=O)N1C)OC(F)(F)O3 [Example 408, (8R,14S,18S)-N-(2-(benzo[d][1,3]dioxol-5-yl)ethyl)-8-benzyl-2,2-difluoro-14-isobutyl-12,15-dimethyl-10,13,16,20-tetraoxo-7,8,9,10,11,12,13,14,15,16,17,18,19,20-tetradecahydro-[1,3]dioxolo[4′,5′:5,6]benzo[1,2-p][1]oxa[4,7,10,14]tetraazacycloheptadecine-18-carboxamide]
  pEC50: 6.62
  Emax: 134%

## COc1cccc(CCNC(=O)[C@@H]2CC(=O)N(C)[C@@H](CC(C)C)C(=O)N(C)CC(=O)N[C@H](Cc3ccccc3)COc3ccc4c(c3C(=O)N2)OC(F)(F)O4)c1 [Example 409, (8R,14S,18S)-8-benzyl-2,2-difluoro-14-isobutyl-N-(3-methoxyphenethyl)-12,15-dimethyl-10,13,16,20-tetraoxo-7,8,9,10,11,12,13,14,15,16,17,18,19,20-tetradecahydro-[1,3]dioxolo[4′,5′:5,6]benzo[1,2-p][1]oxa[4,7,10,14]tetraazacycloheptadecine-18-carboxamide]
  pEC50: 6.67
  Emax: 144%

## Cc1cc(CCNC(=O)[C@@H]2CC(=O)N(C)[C@@H](CC(C)C)C(=O)N(CCC3CCCCC3)CC(=O)N[C@H](Cc3ccccc3)COc3ccc4nc(C)oc4c3C(=O)N2)on1 [Example 410, (8R,14S,18S)-8-benzyl-12-(2-cyclohexylethyl)-14-isobutyl-2,15-dimethyl-N-(2-(3-methylisoxazol-5-yl)ethyl)-10,13,16,20-tetraoxo-7,8,9,10,11,12,13,14,15,16,17,18,19,20-tetradecahydrooxazolo[4′,5′:5,6]benzo[1,2-p][1]oxa[4,7,10,14]tetraazacycloheptadecine-18-carboxamide]
  pEC50: 6.89
  Emax: 269%

## Cc1cc(CCNC(=O)[C@@H]2CC(=O)N(C)[C@@H](CC(C)C)C(=O)N(CCC3CCCCC3)CC(=O)N[C@H](Cc3ccccc3)COc3cnc4c(F)cccc4c3C(=O)N2)on1 [Example 411, (3S,7S,13R)-13-benzyl-9-(2-cyclohexylethyl)-18-fluoro-7-isobutyl-6-methyl-N-(2-(3-methylisoxazol-5-yl)ethyl)-1,5,8,11-tetraoxo-1,2,3,4,5,6,7,8,9,10,11,12,13,14-tetradecahydro-[1]oxa[4,7,10,14]tetraazacycloheptadecino[17,16-c]quinoline-3-carboxamide]
  pEC50: 6.86
  Emax: 250%

## COc1cccc(CCNC(=O)[C@@H]2CC(=O)N(C)[C@@H](CC(C)C)C(=O)N3CCOC[C@@H]3C(=O)N[C@H](Cc3ccccc3)COc3cnc4ccccc4c3C(=O)N2)c1 [Example 412, (9S,13S,19aR,22R)-22-benzyl-13-isobutyl-N-(3-methoxyphenethyl)-12-methyl-7,11,14,20-tetraoxo-7,8,9,10,11,12,13,14,16,17,19,19a,20,21,22,23-hexadecahydro-[1,4]oxazino[3′,4′:6,7][1]oxa[4,7,10,14]tetraazacycloheptadecino[17,16-c]quinoline-9-carboxamide]
  pEC50: 6.42
  Emax: 291%

## COc1cccc(CCNC(=O)[C@@H]2CC(=O)N(C)[C@@H](CC(C)C)C(=O)N3CCOC[C@H]3C(=O)N[C@H](Cc3ccccc3)COc3cnc4ccccc4c3C(=O)N2)c1 [Example 413, (9S,13S,19aS,22R)-22-benzyl-13-isobutyl-N-(3-methoxyphenethyl)-12-methyl-7,11,14,20-tetraoxo-7,8,9,10,11,12,13,14,16,17,19,19a,20,21,22,23-hexadecahydro-[1,4]oxazino[3′,4′:6,7][1]oxa[4,7,10,14]tetraazacycloheptadecino[17,16-c]quinoline-9-carboxamide]
  pEC50: 6.25
  Emax: 129%

## COCCN1CCN2C(=O)[C@H](CC(C)C)N(C)C(=O)C[C@@H](C(=O)NCCc3cccc(OC(F)F)c3)NC(=O)c3c(cnc4ccccc34)OC[C@@H](Cc3ccccc3)NC(=O)[C@H]2C1 [Example 414, (9S,13S,19aR,22R)-22-benzyl-N-(3-(difluoromethoxy)phenethyl)-13-isobutyl-18-(2-methoxyethyl)-12-methyl-7,11,14,20-tetraoxo-7,8,9,10,11,12,13,14,17,18,19,19a,20,21,22,23-hexadecahydro-16H-pyrazino[2′,1′:6,7][1]oxa[4,7,10,14]tetraazacycloheptadecino[17,16-c]quinoline-9-carboxamide]
  pEC50: 6.43
  Emax: 251%

## COCCN1CCN2C(=O)[C@H](CC(C)C)N(C)C(=O)C[C@@H](C(=O)NCCc3nc4c(s3)CCC4)NC(=O)c3c(cnc4ccccc34)OC[C@@H](Cc3ccccc3)NC(=O)[C@H]2C1 [Example 415, (9S,13S,19aR,22R)-22-benzyl-N-(2-(5,6-dihydro-4H-cyclopenta[d]thiazol-2-yl)ethyl)-13-isobutyl-18-(2-methoxyethyl)-12-methyl-7,11,14,20-tetraoxo-7,8,9,10,11,12,13,14,17,18,19,19a,20,21,22,23-hexadecahydro-16H-pyrazino[2′,1′:6,7][1]oxa[4,7,10,14]tetraazacycloheptadecino[17,16-c]quinoline-9-carboxamide]
  pEC50: 6.08
  Emax: 274%

## COc1cccc(CCNC(=O)[C@@H]2CC(=O)N(C)[C@@H](CC(C)C)C(=O)N3CCN(CCO)C[C@@H]3C(=O)N[C@H](Cc3ccccc3)COc3ccc4ccccc4c3C(=O)N2)c1 [Example 416, (4aR,7R,18S,22S)-7-benzyl-3-(2-hydroxyethyl)-22-isobutyl-N-(3-methoxyphenethyl)-21-methyl-5,16,20,23-tetraoxo-2,3,4,4a,5,6,7,8,16,17,18,19,20,21,22,23-hexadecahydro-1H-naphtho[1,2-p]pyrazino[2,1-f][1]oxa[4,7,10,14]tetraazacycloheptadecine-18-carboxamide]
  pEC50: 6.28
  Emax: 345%
